Data taken from the NIST ThermoML archive (doi:10.1021/acs.jced.5b01023).

Assay: xn = mol fraction of the nth substance listed
Details: for surface tension liquid-gas: Wilhelmy plates; for viscosity / mass density: 101 kPa, Liquid; for viscosity: Capillary tube (Ostwald / Ubbelohde) method; for mass density: Vibrating tube method

CC(=O)[O-].CCn1cc[n+](C)c1 [1-ethyl-3-methylimidazolium acetate] + CCCO
Details | mass density [kg/m3] | surface tension liquid-gas [mN/m] | viscosity [mPa·s]
288.15 K, x1 = 0.1017 | 869.4 | 25.8 | 4.866
288.15 K, x1 = 0.2004 | 915.48 | 27.4 | 7.99
288.15 K, x1 = 0.3001 | 953.82 | 29.7 | 13.36
288.15 K, x1 = 0.3998 | 986.05 | 31.7 | 22.26
288.15 K, x1 = 0.4997 | 1013.52 | 33.7 | 36.38
288.15 K, x1 = 0.5996 | 1037.16 | 35.6 | 57.47
288.15 K, x1 = 0.6998 | 1057.65 | 37.7 | 90.15
288.15 K, x1 = 0.8002 | 1075.6 | 40.2 | 135
288.15 K, x1 = 0.8991 | 1090.97 | 43.2 | 196.8
288.15 K, x1 = 1 | 1105.2 | 47.7 | 283.8
298.15 K, x1 = 0.1017 | 862.03 | 25.2 | 3.822
298.15 K, x1 = 0.2004 | 908.4 | 26.5 | 6.163
298.15 K, x1 = 0.3001 | 946.94 | 29.2 | 9.963
298.15 K, x1 = 0.3998 | 979.34 | 31 | 15.81
298.15 K, x1 = 0.4997 | 1006.95 | 33.1 | 24.44
298.15 K, x1 = 0.5996 | 1030.7 | 34.7 | 36.48
298.15 K, x1 = 0.6998 | 1051.29 | 37.2 | 53.65
298.15 K, x1 = 0.8002 | 1069.33 | 39.7 | 75.63
298.15 K, x1 = 0.8991 | 1084.89 | 42.7 | 103.9
298.15 K, x1 = 1 | 1099.03 | 47.1 | 139
308.15 K, x1 = 0.1017 | 854.63 | 24.7 | 3.038
308.15 K, x1 = 0.2004 | 901.33 | 25.8 | 4.878
308.15 K, x1 = 0.3001 | 940.1 | 28.7 | 7.657
308.15 K, x1 = 0.3998 | 972.66 | 30.7 | 11.7
308.15 K, x1 = 0.4997 | 1000.41 | 32.7 | 17.3
308.15 K, x1 = 0.5996 | 1024.28 | 34.2 | 24.75
308.15 K, x1 = 0.6998 | 1044.96 | 36.6 | 34.59
308.15 K, x1 = 0.8002 | 1063.09 | 39.2 | 46.49
308.15 K, x1 = 0.8991 | 1078.75 | 42.2 | 60.98
308.15 K, x1 = 1 | 1092.93 | 46.6 | 77.32
318.15 K, x1 = 0.1017 | 847.19 | 23.9 | 2.461
318.15 K, x1 = 0.2004 | 894.27 | 25.3 | 3.952
318.15 K, x1 = 0.3001 | 933.29 | 28.5 | 6.043
318.15 K, x1 = 0.3998 | 966.03 | 30.2 | 8.961
318.15 K, x1 = 0.4997 | 993.92 | 32.2 | 12.78
318.15 K, x1 = 0.5996 | 1017.9 | 33.3 | 17.58
318.15 K, x1 = 0.6998 | 1038.68 | 36.1 | 23.68
318.15 K, x1 = 0.8002 | 1056.89 | 38.8 | 30.86
318.15 K, x1 = 0.8991 | 1072.62 | 41.8 | 37.98
318.15 K, x1 = 1 | 1086.86 | 46.1 | 47.37
328.15 K, x1 = 0.1017 | 839.68 | 23 | 2.018
328.15 K, x1 = 0.2004 | 887.21 | 25 | 3.268
328.15 K, x1 = 0.3001 | 926.51 | 27.9 | 4.878
328.15 K, x1 = 0.3998 | 959.44 | 30 | 7.05
328.15 K, x1 = 0.4997 | 987.48 | 31.7 | 9.766
328.15 K, x1 = 0.5996 | 1011.58 | 33.1 | 13.01
328.15 K, x1 = 0.6998 | 1032.45 | 35.8 | 17.05
328.15 K, x1 = 0.8002 | 1050.74 | 38.1 | 21.36
328.15 K, x1 = 0.8991 | 1066.53 | 41.4 | 25.84
328.15 K, x1 = 1 | 1080.82 | 45.9 | 31.29
338.15 K, x1 = 0.1017 | 832.08 | 22.3 | 1.68
338.15 K, x1 = 0.2004 | 880.13 | 24 | 2.686
338.15 K, x1 = 0.3001 | 919.75 | 27.3 | 3.946
338.15 K, x1 = 0.3998 | 952.89 | 29.5 | 5.672
338.15 K, x1 = 0.4997 | 981.08 | 31.3 | 7.675
338.15 K, x1 = 0.5996 | 1005.3 | 32.6 | 9.978
338.15 K, x1 = 0.6998 | 1026.26 | 35.5 | 12.68
338.15 K, x1 = 0.8002 | 1044.63 | 37.9 | 15.57
338.15 K, x1 = 0.8991 | 1060.48 | 41.2 | 18.49
338.15 K, x1 = 1 | 1074.83 | 45.4 | 21.85
348.15 K, x1 = 0.1017 | 824.34 | 21.5 | 1.413
348.15 K, x1 = 0.2004 | 873.02 | 23.6 | 2.26
348.15 K, x1 = 0.3001 | 912.99 | 27.1 | 3.292
348.15 K, x1 = 0.3998 | 946.36 | 29.3 | 4.651
348.15 K, x1 = 0.4997 | 974.71 | 30.8 | 6.175
348.15 K, x1 = 0.5996 | 999.06 | 31.8 | 7.866
348.15 K, x1 = 0.6998 | 1020.12 | 34.5 | 9.81
348.15 K, x1 = 0.8002 | 1038.57 | 37.6 | 11.81
348.15 K, x1 = 0.8991 | 1054.49 | 41 | 13.78
348.15 K, x1 = 1 | 1068.88 | 45.1 | 16.01
